Like-named read-outs stand apart in the source and are kept apart here.
Assays:
HPK1 = HPK1 (Homo sapiens, UniProt Q92918); experiment: HPK1 Biochemical Assay (ADP-Glo luminescence; low ATP 10 μM or high ATP 200 μM)
[1] = system: p-SLP-76 (Ser376) in Jurkat cells; experiment: pSLP76 Cellular Assay (AlphaLISA SureFire Ultra p-SLP-76 (Ser376), anti-CD3 activated Jurkat cells); assay type: cell-based; conditions: Homo sapiens, read-out: Cellular Potency
Method in brief: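 Read-out is AlphaLISA p-SLP-76 (Ser376) signal at 570 nm in Jurkat lysates, with IC50 fitted by 4-parameter logistic. Cells were starved overnight, exposed 1 h at 37 °C to 22 twofold compound dilutions in HBSS, then activated 45 min with anti-CD3 (0.025 mg/ml stock added).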

[2] = 2 nM HPK1, 10 μM ATP, read-out: Biochemical Potency (low ATP)
[3] = Jurkat cells, anti-CD3 stimulation, pSLP76
[4] = HPK1 ADP-Glo assay, high ATP (200 μM ATP, 5 nM HPK1), read-out: Biochemical Potency (high ATP)
[5] = pSLP76 (Ser376) AlphaLISA, anti-CD3 activated Jurkat cells
[6] = HPK1 ADP-Glo assay, low ATP (10 μM ATP, 2 nM HPK1), read-out: Biochemical Potency (low ATP)

Chain of HPK1 (Q92918 whole entry, species assumed): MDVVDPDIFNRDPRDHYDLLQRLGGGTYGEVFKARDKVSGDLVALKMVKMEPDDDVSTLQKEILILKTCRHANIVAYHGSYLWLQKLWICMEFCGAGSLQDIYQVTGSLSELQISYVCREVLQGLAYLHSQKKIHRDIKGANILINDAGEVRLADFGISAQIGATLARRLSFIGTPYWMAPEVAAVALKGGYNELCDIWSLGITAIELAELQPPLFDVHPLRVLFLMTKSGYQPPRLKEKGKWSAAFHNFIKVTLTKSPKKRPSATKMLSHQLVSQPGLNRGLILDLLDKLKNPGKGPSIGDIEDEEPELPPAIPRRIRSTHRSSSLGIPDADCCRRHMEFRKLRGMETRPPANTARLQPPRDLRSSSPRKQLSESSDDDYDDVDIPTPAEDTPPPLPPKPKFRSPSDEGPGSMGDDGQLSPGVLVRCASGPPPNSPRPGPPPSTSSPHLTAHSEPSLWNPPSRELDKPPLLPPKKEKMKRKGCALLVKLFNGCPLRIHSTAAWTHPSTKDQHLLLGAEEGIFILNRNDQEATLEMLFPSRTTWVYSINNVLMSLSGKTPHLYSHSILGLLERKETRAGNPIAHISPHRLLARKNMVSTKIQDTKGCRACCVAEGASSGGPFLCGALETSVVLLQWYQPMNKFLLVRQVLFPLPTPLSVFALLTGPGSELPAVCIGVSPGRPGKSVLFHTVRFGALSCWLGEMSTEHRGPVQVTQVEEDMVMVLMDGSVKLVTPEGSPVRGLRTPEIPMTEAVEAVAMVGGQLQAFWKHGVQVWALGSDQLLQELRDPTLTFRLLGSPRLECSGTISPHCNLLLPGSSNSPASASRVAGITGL

SMILES	IC50 (HPK1; [2])	IC50 [1, 3]	IC50 (HPK1; [4])	IC50 [1, 5]	IC50 (HPK1; [6])
Cc1c(-c2nc3cc(Nc4ccc(N5CCOCC5)c(CN(C)C)n4)ncc3s2)cnc2c1NCCO2 [Example 28, 6-[(Dimethylamino)methyl]-N-(2-{8-methyl-1H,2H,3H-pyrido[2,3-b][1,4]oxazin-7-yl}-[1,3]thiazolo[5,4-c]pyridin-6-yl)-5-(morpholin-4-yl)pyridin-2-amine]	< 100 nM	100 to 1000 nM	–	–	–
Cc1cccc(F)c1-c1nc2cc(Nc3ccc(N4CCOCC4)c(CN4CCCS4(=O)=O)n3)ncc2s1 [Example 30, 2-[(6-{[2-(2-Fluoro-6-methylphenyl)-[1,3]thiazolo[5,4-c]pyridin-6-yl]amino}-3-(morpholin-4-yl)pyridin-2-yl)methyl]-1λ^6,2-thiazolidine-1,1-dione]	< 100 nM	100 to 1000 nM	–	–	–
CC(=O)N1CCCc2c(-c3nc4cc(Nc5cc(C)nc(N6C[C@@H]7C[C@H]6CN7C)n5)ncc4s3)cccc21 [Example 573]	–	–	100 to 1000 nM	1000 to 5000 nM	–
Cc1cc(Nc2cc3nc(-c4cccc(C(C)(C)O)c4F)sc3cn2)nc(N2C[C@@H]3C[C@H]2CN3C)n1 [Example 401]	–	–	< 100 nM	100 to 1000 nM	–
Cc1cc(Nc2cc3nc(-c4cnn5c4CN(S(C)(=O)=O)CC5)sc3cn2)nc(N2C[C@@H]3C[C@H]2CN3C)n1 [Example 570]	–	–	< 100 nM	< 100 nM	–
c1ccc(-c2nc3cc(Nc4ccc(N5CCOCC5)c(CN5CCCC5)n4)ncc3s2)nc1 [Example 7, 5-(Morpholin-4-yl)-N-[2-(pyridin-2-yl)-[1,3]thiazolo[5,4-c]pyridin-6-yl]-6-[(pyrrolidin-1-yl)methyl]pyridin-2-amine]	< 100 nM	1000 to 5000 nM	–	–	–
CCN1C[C@@H]2C[C@H]1CN2c1nc(C)cc(Nc2cc3nc(-c4cccc(C(=O)N5CCCOCC5)c4)sc3cn2)n1 [Example 531]	–	–	< 100 nM	100 to 1000 nM	–
c1cnn(-c2nc3cc(Nc4ccc(C5CCOCC5)c(CN5CCCC5)n4)ncc3s2)c1 [Example 210, 5-(Oxan-4-yl)-N-[2-(1H-pyrazol-1-yl)-[1,3]thiazolo[5,4-c]pyridin-6-yl]-6-[(pyrrolidin-1-yl)methyl]pyridin-2-amine]	< 100 nM	100 to 1000 nM	–	–	–
Cc1cc(Nc2cc3nc(-c4ccnc(N5C6CCC5COC6)c4)sc3cn2)nc(N2C[C@@H]3C[C@H]2CN3CCO)n1 [Example 447]	–	–	< 100 nM	< 100 nM	–
CN(C)Cc1ccc(N2CCOCC2)c(Nc2cc3nc(-c4c(F)cccc4F)sc3cn2)n1 [Example 276, N-[2-(2,6-Difluorophenyl)-[1,3]thiazolo[5,4-c]pyridin-6-yl]-6-[(dimethylamino)methyl]-3-(morpholin-4-yl)pyridin-2-amine]	> 5000 nM	> 5000 nM	–	–	–
Cc1cc(Nc2cc3nc(-c4cccc(C(=O)N5C[C@H]6C[C@@H]5CO6)c4)sc3cn2)nc(N2C[C@@H]3C[C@H]2CN3CCO)n1 [Example 563]	–	–	< 100 nM	100 to 1000 nM	–
CCN1C[C@@H]2C[C@H]1CN2c1nc(C)cc(Nc2cc3nc(-c4cccc(C(=O)N5C[C@@H]6OCCO[C@@H]6C5)c4)sc3cn2)n1 [Example 529]	–	–	< 100 nM	< 100 nM	–
CCc1cc(C(=O)N(C)C)cc(-c2nc3cc(Nc4cc(C)nc(N5C[C@@H]6C[C@H]5CN6CC)n4)ncc3s2)c1 [Example 518]	–	–	< 100 nM	< 100 nM	–
Cc1cc(Nc2cc3nc(-c4cnn(C5CCN(S(C)(=O)=O)CC5)c4)sc3cn2)nc(N2C[C@@H]3C[C@H]2CN3C)n1 [Example 572]	–	–	< 100 nM	1000 to 5000 nM	–

Next, values leading:

IC50 (HPK1; [2])	IC50 [1, 3]	IC50 (HPK1; [4])	IC50 [1, 5]	IC50 (HPK1; [6])	SMILES
< 100 nM	1000 to 5000 nM	–	–	–	Cc1cccnc1-c1nc2cc(Nc3cccc(N4CC5CCC4CN5C)n3)ncc2s1 (centres unmarked) [Example 97, 6-{5-Methyl-2,5-diazabicyclo[2.2.2]octan-2-yl}-N-[2-(3-methylpyridin-2-yl)-[1,3]thiazolo[5,4-c]pyridin-6-yl]pyridin-2-amine]
–	–	< 100 nM	5000 to 25000 nM	–	Cc1cc(Nc2cc3nc(-c4ccn5nccc5c4)sc3cn2)nc(N2C[C@@H]3C[C@H]2CN3C)n1 [Example 377]
–	–	< 100 nM	< 100 nM	–	Cc1cc(Nc2cc3nc(-c4cccc(S(=O)(=O)CC5CC5)c4)sc3cn2)nc(N2C[C@@H]3C[C@H]2CN3CCO)n1 [Example 501]
–	–	< 100 nM	100 to 1000 nM	–	CO[C@@H]1CCN(c2cc(-c3nc4cc(Nc5cc(C)nc(N6C[C@@H]7C[C@H]6CN7CCO)n5)ncc4s3)ccn2)C1 [Example 453]
< 100 nM	100 to 1000 nM	–	–	–	Cc1cccnc1-c1nc2cc(Nc3ccc(F)c(N4C[C@@H]5C[C@H]4CN5)n3)ncc2s1 [Example 83, 6-[(1S,4S)-2,5-Diazabicyclo[2.2.1]heptan-2-yl]-5-fluoro-N-[2-(3-methylpyridin-2-yl)-[1,3]thiazolo[5,4-c]pyridin-6-yl]pyridin-2-amine]
–	–	< 100 nM	100 to 1000 nM	< 100 nM	c1cnn(-c2nc3cc(Nc4cncc(N5C[C@@H]6C[C@H]5CN6)n4)ncc3s2)c1 [Example 430]
< 100 nM	100 to 1000 nM	–	–	–	Cc1cccnc1-c1nc2cc(Nc3ccc([C@H]4CCOC4)c(CN4CCCC4)n3)ncc2s1 (single isomer, unassigned) [Example 258, N-[2-(3-Methylpyridin-2-yl)-[1,3]thiazolo[5,4-c]pyridin-6-yl]-5-[(3R or 3S)-oxolan-3-yl]-6-[(pyrrolidin-1-yl)methyl]pyridin-2-amine]
–	–	< 100 nM	100 to 1000 nM	–	Cc1cc(Nc2cc3nc(-c4cccc(C5(O)CCC5)c4)sc3cn2)nc(N2C[C@@H]3C[C@H]2CN3C)n1 [Example 402]
< 100 nM	100 to 1000 nM	–	–	–	CN1C[C@@H]2C[C@H]1CN2c1cccc(Nc2cc3nc(-n4cccn4)sc3cn2)n1 [Example 206, 6-[(1S,4S)-5-Methyl-2,5-diazabicyclo[2.2.1]heptan-2-yl]-N-[2-(1H-pyrazol-1-yl)-[1,3]thiazolo[5,4-c]pyridin-6-yl]pyridin-2-amine]
< 100 nM	< 100 nM	–	–	–	CN(C)Cc1nc(Nc2cc3nc(-c4ccncc4)sc3cn2)ccc1N1CCOCC1 [Example 5, 6-[(Dimethylamino)methyl]-5-(morpholin-4-yl)-N-[2-(pyridin-4-yl)-[1,3]thiazolo[5,4-c]pyridin-6-yl]pyridin-2-amine]
< 100 nM	< 100 nM	–	–	–	Cc1cc(Nc2cc3nc(-c4cccnc4)sc3cn2)nc(O[C@H]2CCNC2)c1 [Example 167, 4-Methyl-N-[2-(pyridin-3-yl)-[1,3]thiazolo[5,4-c]pyridin-6-yl]-6-[(3S)-pyrrolidin-3-yloxy]pyridin-2-amine]
< 100 nM	1000 to 5000 nM	–	–	–	Cc1cc(NCc2nccn2C)nc(Nc2cc3nc(-c4ccnc(C)c4)sc3cn2)c1 [Example 76, 4-Methyl-N2-[(1-methyl-1H-imidazol-2-yl)methyl]-N6-[2-(2-methylpyridin-4-yl)-[1,3]thiazolo[5,4-c]pyridin-6-yl]pyridine-2,6-diamine]
–	–	< 100 nM	< 100 nM	–	Cc1cc(Nc2cc3nc(-c4cccc(C(=O)NC5CCCC5)c4)sc3cn2)nc(N2C[C@@H]3C[C@H]2CN3CCO)n1 [Example 545]
< 100 nM	100 to 1000 nM	–	–	–	Cc1cccnc1-c1nc2cc(Nc3ccc([C@@H]4CCOC4)c(CN4CCCC4)n3)ncc2s1 (single isomer, unassigned) [Example 259, N-[2-(3-Methylpyridin-2-yl)-[1,3]thiazolo[5,4-c]pyridin-6-yl]-5-[(3R or 3S)-oxolan-3-yl]-6-[(pyrrolidin-1-yl)methyl]pyridin-2-amine]
< 100 nM	1000 to 5000 nM	–	–	–	Cc1ccc(Nc2cc3nc(-n4cccn4)sc3cn2)nc1CN1CCCC1 [Example 200, 5-Methyl-N-[2-(1H-pyrazol-1-yl)-[1,3]thiazolo[5,4-c]pyridin-6-yl]-6-[(pyrrolidin-1-yl)methyl]pyridin-2-amine]
–	–	< 100 nM	< 100 nM	–	Cc1cc(Nc2cc3nc(-c4cccc(C(=O)N(C)C5CCCC5)c4)sc3cn2)nc(N2C[C@@H]3C[C@H]2CN3CCO)n1 [Example 544]
< 100 nM	> 5000 nM	–	–	–	CN1C[C@@H]2C[C@H]1CN2c1cccc(Nc2cc3nc(-c4cccc(C#N)c4)sc3cn2)n1 [Example 133, 3-[6-({6-[(1S,4S)-5-Methyl-2,5-diazabicyclo[2.2.1]heptan-2-yl]pyridin-2-yl}amino)-[1,3]thiazolo[5,4-c]pyridin-2-yl]benzonitrile]
< 100 nM	100 to 1000 nM	–	–	–	Cc1cccnc1-c1nc2cc(Nc3cccc(N4C[C@H](N)C[C@H]4CO)n3)ncc2s1 [Example 70, [(2S,4R)-4-Amino-1-(6-{[2-(3-methylpyridin-2-yl)-[1,3]thiazolo[5,4-c]pyridin-6-yl]amino}pyridin-2-yl)pyrrolidin-2-yl]methanol]
–	–	< 100 nM	< 100 nM	–	Cc1cc(Nc2cc3nc(-c4ccnc(C(O)C5CC5)c4)sc3cn2)nc(N2C[C@@H]3C[C@H]2CN3CCO)n1 (stereo partly drawn) [Example 307, 2-[(1S,4S)-5-(4-{2-[2-(cyclopropylhydroxymethyl)-4-pyridyl]-3-thia-1,5-diaza-6-indenylamino}-6-methyl-2-pyrimidinyl)-2,5-diazabicyclo[2.2.1]hept-2-yl]ethanol]
–	–	< 100 nM	< 100 nM	–	CCN(C)C(=O)c1cccc(-c2nc3cc(Nc4cc(C)nc(N5C[C@@H]6C[C@H]5CN6CCO)n4)ncc3s2)c1 [Example 505]
–	–	–	100 to 1000 nM	< 100 nM	CNS(=O)(=O)c1cccc(-c2nc3cc(Nc4cncc(N5C[C@@H]6C[C@H]5CN6C)n4)ncc3s2)c1 [Example 416]
